From PubChem BioAssay (NCI)
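Five concentrations, 48 hours, 96-well plates. At the TGI there is no net growth.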

Tests used:
Experiment in all cases: NCI-60 cell line screen, 48 h
[1] = system: OVCAR-5 ovarian
[2] = system: HS 578T breast
[3] = system: HOP-92 NSCLC
[4] = system: SF-268 CNS
[5] = system: NCI-H460 lung
[6] = system: A549 NSCLC
[7] = system: DU-145 prostate
[8] = system: IGROV1 ovarian
[9] = system: LOX IMVI melanoma
[10] = system: MOLT-4 leukemia
[11] = system: EKVX NSCLC
[12] = system: MDA-N
[13] = system: HCT-15 colon
[14] = system: COLO 205 colon
[15] = system: ACHN renal
[16] = system: UACC-62 melanoma
[17] = system: SF-295 CNS
[18] = system: SN12C renal
[19] = system: NCI-H522 lung
[20] = system: MDA-MB-231 breast
[21] = system: TK-10 renal
[22] = system: KM12 colon
[23] = system: SF-539 CNS
[24] = system: RXF 393 renal
[25] = system: RPMI-8226 leukemia
[26] = system: U251 CNS
[27] = system: M14 melanoma
[28] = system: NCI-H23 lung
[29] = system: CAKI-1 renal
[30] = system: SK-MEL-2 melanoma
[31] = system: SW-620 colon
[32] = system: UACC-257 melanoma
[33] = system: HT29 colon
[34] = system: CCRF-CEM leukemia
[35] = system: MCF7 breast
[36] = system: OVCAR-4 ovarian
[37] = system: PC-3 prostate
[38] = system: NCI-H226 lung
[39] = system: HCC-2998 colon
[40] = system: T-47D breast
[41] = system: OVCAR-3 ovarian
[42] = system: 786-0 renal
[43] = system: A498 renal
[44] = system: NCI/ADR-RES ovarian
[45] = system: HL-60(TB) leukemia
[46] = system: MALME-3M melanoma
[47] = system: HOP-62 NSCLC
[48] = system: UO-31 renal
[49] = system: OVCAR-8 ovarian
[50] = system: SK-OV-3 ovarian
[51] = system: K-562 leukemia
[52] = system: SK-MEL-28 melanoma
[53] = system: MDA-MB-435
[54] = system: SK-MEL-5 melanoma
[55] = system: SNB-19 CNS
[56] = system: SNB-75 CNS
[57] = system: HCT-116 colon
[58] = system: BT-549 breast

[N-]=[N+]=C(C(=O)OCC#CCOC(=O)C(=[N+]=[N-])S(=O)(=O)c1ccccc1)S(=O)(=O)c1ccccc1
TGI [1]: > 10 µM | TGI [2]: > 10 µM | TGI [3]: > 10 µM | TGI [4]: > 10 µM | TGI [5]: > 10 µM | TGI [6]: > 10 µM | TGI [7]: > 10 µM | TGI [8]: > 10 µM | TGI [9]: > 10 µM | TGI [10]: > 10 µM | TGI [11]: > 10 µM | TGI [12]: > 10 µM | TGI [13]: > 10 µM | TGI [14]: > 10 µM | TGI [15]: > 10 µM | TGI [16]: > 10 µM | TGI [17]: > 10 µM | TGI [18]: > 10 µM | TGI [19]: > 10 µM | TGI [20]: > 10 µM | TGI [21]: > 10 µM | TGI [22]: > 10 µM | TGI [23]: > 10 µM | TGI [24]: > 10 µM | TGI [25]: > 10 µM | TGI [26]: > 10 µM | TGI [27]: > 10 µM | TGI [28]: > 10 µM | TGI [29]: > 10 µM | TGI [30]: > 10 µM | TGI [31]: > 10 µM | TGI [32]: > 10 µM | TGI [33]: > 10 µM | TGI [34]: > 10 µM | TGI [35]: > 10 µM | TGI [36]: > 10 µM | TGI [37]: > 10 µM | TGI [38]: > 10 µM | TGI [39]: > 10 µM | TGI [40]: > 10 µM | TGI [41]: > 10 µM | TGI [42]: > 10 µM | TGI [43]: > 10 µM | TGI [44]: > 10 µM | TGI [45]: > 10 µM | TGI [46]: > 10 µM | TGI [47]: > 10 µM | TGI [48]: 0.519 µM | TGI [49]: > 10 µM | TGI [50]: > 10 µM | TGI [51]: > 10 µM | TGI [52]: > 10 µM | TGI [53]: > 10 µM | TGI [54]: > 10 µM | TGI [55]: > 10 µM | TGI [56]: > 10 µM | TGI [57]: > 10 µM | TGI [58]: > 10 µM

NC(Cc1ccccc1)=NCC(=O)O
TGI [1]: > 100 µM | TGI [2]: > 100 µM | TGI [3]: > 100 µM | TGI [4]: > 100 µM | TGI [5]: > 100 µM | TGI [6]: > 100 µM | TGI [7]: > 100 µM | TGI [8]: > 100 µM | TGI [9]: > 100 µM | TGI [10]: > 100 µM | TGI [11]: > 100 µM | TGI [12]: > 100 µM | TGI [13]: > 100 µM | TGI [14]: > 100 µM | TGI [15]: > 100 µM | TGI [16]: > 100 µM | TGI [17]: > 100 µM | TGI [18]: > 100 µM | TGI [19]: > 100 µM | TGI [20]: > 100 µM | TGI [21]: > 100 µM | TGI [22]: > 100 µM | TGI [24]: > 100 µM | TGI [25]: > 100 µM | TGI [26]: > 100 µM | TGI [27]: > 100 µM | TGI [28]: > 100 µM | TGI [29]: > 100 µM | TGI [30]: > 100 µM | TGI [31]: > 100 µM | TGI [32]: > 100 µM | TGI [33]: > 100 µM | TGI [34]: > 100 µM | TGI [35]: > 100 µM | TGI [36]: > 100 µM | TGI [37]: > 100 µM | TGI [38]: > 100 µM | TGI [39]: > 100 µM | TGI [40]: > 100 µM | TGI [41]: > 100 µM | TGI [42]: > 100 µM | TGI [43]: > 100 µM | TGI [44]: > 100 µM | TGI [45]: > 100 µM | TGI [46]: > 100 µM | TGI [47]: > 100 µM | TGI [48]: > 100 µM | TGI [49]: > 100 µM | TGI [50]: > 100 µM | TGI [51]: > 100 µM | TGI [52]: > 100 µM | TGI [53]: > 100 µM | TGI [54]: > 100 µM | TGI [55]: > 100 µM | TGI [56]: > 100 µM | TGI [57]: > 100 µM | TGI [58]: > 100 µM
